Results as given in US20220296480A1, “TOPICAL COMPOSITIONS” (DSM IP ASSETS B.V., priority 2019, published 2022).

Test system: A. brasiliensis
Experiment: Preservation challenge test of inoculated O/W emulsion (ISO 11930)
Assay type: cell-based, Aspergillus brasiliensis
Conditions: stored 22.5±2.5° C
Protocol: The evaluation of the preservation of a cosmetic formulation is based on inoculation of the formulation as outlined in table 1 with calibrated inocula (prepared from relevant strains of micro-organisms). Therefore, to each formulation 0.2 ml of calibrated inoculum is added to obtain between 1×10^2 cfu/ml and 1×10^6 cfu/ml or g of A. brasiliensis in the formulation (final concentration), which is mixed thoroughly into the formulation to ensure a homogeneous distribution of the inoculum. Then the respective containers containing the inoculated formulations are stored @22.5±2.5° C. At each specified sampling interval (initial (T0), 7 days (T7) and 28 days ([…])) 1 g of the inoculated formulation is taken and a dilution prepared to perform the enumeration of surviving micro-organisms. Then, for each time and each strain/strain mixture, the average log value is calculated which is represented in tables 2 and 3. (Procedure: see ISO 11930, chapter 5.2.-5.6.3.4. (page 3-13)) [table]

[1] = ERY 0.1 wt.-%, HG & EHG 0.9 wt.-%, time 0 days (T0)
[2] = ERY 0.1 wt.-%, HG & EHG 0.9 wt.-%, time 7 days (T7)
[3] = ERY 0.4 wt.-%, HG & EHG 0.6 wt.-%, time 0 days (T0)
[4] = ERY 0.4 wt.-%, HG & EHG 0.6 wt.-%, time 7 days (T7)

SMILES	Average log [cfu/ml] [1]	Average log [cfu/ml] [2]	Average log [cfu/ml] [3]	Average log [cfu/ml] [4]	Average log [cfu/ml] (ERY 0.1 wt.-%, HG & EHG 0.9 wt.-%, time 28 days (T28))	Average log [cfu/ml] (ERY 0.4 wt.-%, HG & EHG 0.6 wt.-%, time 28 days (T28))
O=C(CO)[C@H](O)CO (racemic) [ERY, Erythrulose]	1.8 log [cfu/ml]	3.5 log [cfu/ml]	2.0 log [cfu/ml]	2.9 log [cfu/ml]	–	–
CCCCC(CC)COCC(O)CO (stereo not shown) [EHG, Ethylhexyl glycerine]	4.6 log [cfu/ml]	4.2 log [cfu/ml]	4.6 log [cfu/ml]	4.4 log [cfu/ml]	4.5 log [cfu/ml]	4.6 log [cfu/ml]
